Measurements published in patent US20030228672A1, “Sorbitol dehydrogenases of ketogulonigenium species, genes and methods of use thereof” (priority 2002, published 2003).

What was measured:
[1] = system: purified SDH of K. robustum ADM X6L; assay: Substrate specificity of purified SDH, PMS-DCIP method; assay type: biochemical, Ketogulonigenium robustum ADM X6L; conditions: 1-Propanol = 100
Description: (§1) The dehydrogenase enzyme activity was assayed spectrophotometrically using 2,6-dichlorophenol indophenol (DCIP) as an artificial electron acceptor and phenazine methosulphate (PMS) as an electron mediator. The reaction mixture contained 50 mM Tris·HCl buffer (pH 8.0), 10 mM MgCl2, 5 mM CaCl2, 5 mM KCN, 0.1 mM PMS, 0.12 mM DCIP, a substrate as D-sorbitol (250 mM), L-sorbose (250 mM) or glyoxal (50 mM) and enzyme solution in a total volumn of 1.0 ml. The rate of decrease in absorbance at 522 nm was determined. One unit of enzyme activity was defined as the amount of enzyme catalyzing reduction of 1 μmol of DCIP per minute.
(§2) First, the periplasmic proteins from the cells of K. robustum ADM X6L and Ketogulonigenium sp. ADM 291-19 obtained in Step 1 of Example 1 were prepared by osmotic shock fractionation as described in Step 3 of Example 1. About 50 ml of osmotic shock fluid containing periplasmic proteins was loaded onto a DEAE-TSK 650 (S) (Merck) column (2.5×15 cm) previously equilibrated with 10 mM Tris·HCl buffer (pH 8.0). The column was first washed with 80 ml of 10 mM Tris·HCl buffer (pH 8.0) containing 0.1 M NaCl, followed by a gradient elution with 600 ml of the same buffer containing 0.1-0.5 M NaCl. Fractions containing 5 ml of eluant were collected and assayed for the SDH enzyme activities with D-sorbitol, L-sorbose and glyoxal as substrate. […] At about 0.15 M NaCl, eluted red fractions that probably contained cytochrome c.
(§3) Active fractions eluted from DEAE column were pooled and further purified by gel filtration column chromatography. The active fractions were concentrated by about 20 fold with ultrafiltration in Centricon 30 (Amicon). The concentrate was loaded onto Superose 12 (Pharmacia) and eluted isocratically with 50 mM sodium phosphate buffer (pH 7.0) containing 0.15 M NaCl.
(§4) The purified enzymes were active toward D-sorbitol, L-sorbose and glyoxal.

[2] = system: purified SDH of Ketogulonigenium sp. ADM 291-19; assay: as above; assay type: biochemical; conditions: 1-Propanol = 100
Description: The dehydrogenase enzyme activity was assayed spectrophotometrically using 2,6-dichlorophenol indophenol (DCIP) as an artificial electron acceptor and phenazine methosulphate (PMS) as an electron mediator. […] The rate of decrease in absorbance at 522 nm was determined. One unit of enzyme activity was defined as the amount of enzyme catalyzing reduction of 1 μmol of DCIP per minute.
as §2, §3, §4

[3] = system: dehydrogenase enzyme activity (SDH) of K. robustum ADM X6L; assay: Enzyme activity in cellular fractions, Ferric-Dupanol method (localization); assay type: biochemical, Ketogulonigenium robustum ADM X6L
Description: (§5) Cells were harvested by centrifugation at 12,000 g for 10 min, washed once with 10 mM Tris·HCl buffer (pH 8.0) and disrupted by sonication in a Branson Sonifier 450 for 15 min at 50% duty cycle in ice. The homogenate thus prepared was centrifuged at 12,000 g for 5 min to remove the cell debris. The resulting supernatant was centrifuged at 100,000 g for 90 min to get the supernatant as soluble fraction and the precipitate as crude membrane fraction. The crude membrane fraction was solubilized with 1.5% n-octyl glucoside by stirring for 2 hours at 4° C. The resultant suspension was centrifuged at 12,000 g for 10 min to give a supernatant, designated as solubilized membrane fraction.
(§6) Enzyme activity was determined also by the Ferric-Dupanol method (Wood, W. A. et al., Meth. Enzymol., 5, 287 (1962)). The enzyme was preincubated for 5 min at 25° C. The reaction was started by addition of 10 mM (final conc.) potassium ferricyanide and 250 mM (final conc.) D-sorbitol, L-sorbose, or glyoxal. After an appropriate time, the reaction was stopped by adding the ferric sulfate-Dupanol solution (Fe2(SO4)3.nH2O 5 g/l, Dupanol (sodium lauryl sulfate) 3 g/l and 85% phosphoric acid 95 ml/l) and the absorbance of the Prussian color developed was determined at 660 nm in a spectrophotometer.
(§7) Enzyme activities towards D-sorbitol, L-sorbose and glyoxal in different cellular fractions were determined for enzyme localization in K. robustum ADM X6L and Ketogulonigenium sp. ADM 291-19. In both cases, most of the enzyme activity detected in crude cell extract was found in the soluble fraction and the activity in solubilized membrane fraction was negligible when assayed with Ferric-Dupanol method.

[4] = system: dehydrogenase enzyme activity (SDH) of Ketogulonigenium sp. ADM 291-19; assay: as above; assay type: biochemical
Description: as §5, §6, §7

[5] = system: purified SDH enzymes; assay: Activity of the purified SDH enzymes toward substrates; assay type: biochemical, K. robustum ADM X6L and Ketogulonigenium sp. ADM 291-19; conditions: purified SDH enzymes of both strains
Description: as §2, §3, §4

[6] = system: SDH; assay: SDH activities in osmotic shock fractions, PMS-DCIP method; assay type: biochemical
Description: For more detailed localization study, periplasmic fraction was enriched by the method of osmotic shock (Neu, H. C. and Heppel, L. A., J. Biol. Chem., 240:3685 (1965)). Wet cells were resuspended at about 0.1 g/ml in 20% sucrose-0.03 M Tris·HCl buffer (pH 8.0) at room temperature. Di-sodium EDTA was added to 1 mM and the flask was shaken at 180 rpm at room temperature for 10 min. After centrifugation at 16,000 g for 20 min at 4° C., the supernatant was removed and the pellet was rapidly mixed with cold distilled water of the same volume as the original cell suspension and shaken in ice bucket in a shaker for 10 min. The mixture was centrifuged again to obtain the supernatant called “osmotic shock fluid”. The pellet was sonicated in the same buffer, centrifuged and the supernatant was obtained as “pellet sonicate”.
as §1
For further localization of the enzymes to periplasm or cytoplasm, periplasm was enriched by osmotic shock method as described in Step 3 of Example 1. In this method, the Tris-Sucrose wash and the osmotic shock fluid represent the periplasmic fraction and the pellet sonicate represents the cytoplasm and the cytoplasmic membrane. […] The remaining activity in pellet sonicate could be due to the incomplete release of periplasm by osmotic shock. Typical enzyme activity assay for SDH and β-galactosidase for fractions obtained by osmotic shock fractionation is shown in Table 3.

[7] = system: K. robustum ADM X6L transformants; assay: Bioconversion of D-sorbitol by transformants, HPLC of culture supernatant; assay type: cell-based, Ketogulonigenium robustum ADM X6L; conditions: for improvement of L-sorbose production from D-sorbitol upon overexpression: flask scale experiment, versus pXH2 control; for L-sorbose production from D-sorbitol upon overexpression (in words): flask scale experiments
Description: For expression of the three SDH genes in K. robustum strains, the genes with their own promoters were subcloned into the vector, pXH2/K5. These plasmids were transformed into the strains, K. robustum ADM X6L and 86-96 (NRRL B-21630), by electroporation. In this case, gene dosage effect may be expected due to the apparent high copy number of the plasmid pXH2/K5. The transformants were analyzed by HPLC for improved conversion activity upon overexpression of each SDH gene using D-sorbitol and L-sorbose as substrate.
The effect of overexpression of the three SDH genes in bioconversion activity was analyzed by HPLC analysis of the product profile of the culture supernatant of transformants in a medium containing D-sorbitol or L-sorbose as substrate. The transformants were cultivated overnight in RM medium containing 20 μg/ml of Kanamycin. This overnight culture was used to inoculate the 25 ml RM medium (supplemented with 20 μg/ml of Kanamycin) containing 20 g/l of D-sorbitol or 20 g/l of L-sorbose as substrate instead of mannitol. The culture supernatant samples were taken in a 12-hour interval and were analyzed by HPLC (Gilson HPLC with RI detector (ERC-7515A, ERC Inc.)) equipped with Asted XL automatic sample injector. Samples were loaded on two 2 mm×300 mm×7.8 mm Aminex HPX-87H columns (BioRad) arranged in series to provide a total column length of 600 mm. The column was run at 50° C. at a flow rate of 0.5 ml/min. The peaks were identified and the concentration was determined by comparison with those of the standards using glycerol as internal standard.
K. robustum ADM X6L transformants harboring the pXSDH1, pXSDH2 or pXSDH3 were cultivated with D-sorbitol or L-sorbose as substrate. HPLC analysis of the products from D-sorbitol (Table 10) or L-sorbose (Table 11) is shown below. A transformant harboring pXH2 served as control.

Molecule: CCCO [1-Propanol]
- % relative activity, ADM X6L ([1]; substrate 50 mM): 100%
- % relative activity, ADM291-19 ([2]; substrate 50 mM): 100%

Molecule: O=C(CO)[C@@H](O)[C@H](O)[C@H](O)CO [D-Fructose]
- % relative activity, ADM X6L ([1]; substrate 250 mM): 8.0%
- % relative activity, ADM291-19 ([2]; substrate 250 mM): 11.7%

Molecule: O=C(O)[C@H](O)[C@@H](O)[C@H](O)[C@H](O)CO [D-Gluconate]
- % relative activity, ADM X6L ([1]; substrate 250 mM): 30.6%
- % relative activity, ADM291-19 ([2]; substrate 250 mM): 20.0%

Molecule: O=C[C@H](O)[C@@H](O)[C@H](O)[C@H](O)CO [D-Glucose]
- % relative activity, ADM X6L ([1]; substrate 250 mM): 27.6%
- % relative activity, ADM291-19 ([2]; substrate 250 mM): 20.0%

Molecule: OC[C@@H](O)[C@@H](O)[C@H](O)[C@H](O)CO [D-Mannitol]
- % relative activity, ADM X6L ([1]; substrate 100 mM): 26.6%
- % relative activity, ADM291-19 ([2]; substrate 100 mM): 0%

Molecule: OC[C@@H](O)[C@@H](O)[C@H](O)[C@@H](O)CO [D-sorbitol]
- enzyme activity, Cell Free Extract ([3]; Cell Free Extract): 0.92 ΔOD/min/4 μl enzyme
- enzyme activity, Membrane Fraction ([3]; Membrane Fraction): 0.01 ΔOD/min/4 μl enzyme
- enzyme activity, Soluble Fraction ([3]; Soluble Fraction): 0.90 ΔOD/min/4 μl enzyme
- enzyme activity, Cell Free Extract ([4]; Cell Free Extract): 0.66 ΔOD/min/2 μl enzyme
- enzyme activity, Membrane Fraction ([4]; Membrane Fraction): 0.00 ΔOD/min/2 μl enzyme
- enzyme activity, Soluble Fraction ([4]; Soluble Fraction): 0.65 ΔOD/min/2 μl enzyme
- activity of the purified enzymes toward the substrate (in words) [5]: active
- % relative activity, ADM X6L ([1]; substrate 250 mM): 12.6%
- % relative activity, ADM291-19 ([2]; substrate 250 mM): 12.4%
- SDH activity, Osmotic Shock Fluid ([6]; Osmotic Shock Fluid (periplasmic fraction)): 0.45 ΔOD/min/50 μl enzyme
- SDH activity, Pellet Sonicate ([6]; Pellet Sonicate (cytoplasm and cytoplasmic membrane)): 0.68 ΔOD/min/50 μl enzyme
- SDH activity, Tris-Sucrose Wash ([6]; Tris-Sucrose Wash (periplasmic fraction)): 0.31 ΔOD/min/50 μl enzyme

Molecule: CCO [Ethanol]
- % relative activity, ADM X6L ([1]; substrate 50 mM): 20.0%
- % relative activity, ADM291-19 ([2]; substrate 50 mM): 38.0%

Molecule: OCC(O)CO [Glycerol]
- % relative activity, ADM X6L ([1]; substrate 250 mM): 56.5%
- % relative activity, ADM291-19 ([2]; substrate 250 mM): 32.5%

B1: SDH3: sorbitol dehydrogenase of K. robustum ADM 86-96, 580 amino acids (SEQ ID NO:8) (protein, listed as Ketogulonigenium sp.)
chain: MRPTTLLRTSAAVLLLGPIPAFAQVTPITDELLANPPAGEWINYGRNQENYRHSPLEQITTDNVGQLQLVWARGMEAGAVQVTPMIHDGVMYLANPGDVIQAIDAKTGDLMWEHRRQLPPVASLNGQGDRKRGVALYGTNLYFTSWDNHLVALDMATGQVVFDVERGSGDDGLTSNTSGPIVANGVIVAGSTCQYSPYGCFVSGHDPASGEELWRNYFIPQAGEEGDETWGNDFESRWMTGVWGQLTYDPVTNLVHYGSTGVGPASETQRGTPGGTLYGTNTRFAVRPDTGEIVWRHQTLPRDNWDQECTFEMMVANVDVQPAADMDGVQAINPNATTGERRVLTGIPCKTGTMWQFDAETGEFLWARDTNYQNLIASIDETGLVTVNEDSVLTQLDTDYDICPTFLGGRDWPSAALNPDSGIYFIPLNNACVDIMAVDQEFSALDVYNTSASYKLAPGFENMGRIDAIDISTGKTLWSAERLASNYSPVLSTAGGVLFNGGTDRYLRALSQETGETLWQTRLASVATGQAISYEIDGTQYVAIAGGGSTYGTNQNRALSEAIDSTTIGNAVYVFALPQQ
- improvement of L-sorbose production from D-sorbitol upon overexpression [7]: ~3 times
- L-sorbose production from D-sorbitol upon overexpression (in words) [7]: significantly improved

B2: SDH1: sorbitol dehydrogenase of K. robustum ADM 86-96, 578 amino acids (SEQ ID NO:5) (protein, listed as Ketogulonigenium sp.)
chain: MKSNSLLLASVAAVAFFAVPAFADVTPVTDELLANPPAGEWISYGRNQENYRHSPLNQITPDNVGQLQLVWARGMNPGVVQVTPLIHDGVMYLANPGDIIQAIDAKTGDLIWEHRRQLPETSTLSSLGDRKRGIALYGTNVYFVSWDNHMVALDAASGQVVFDVDRGQGDERVSNSSGPIVANGVIVAGSTCQYSPFGCFVSGHDASTGEELWRNYFIPQAGEEGDETWGNDYEARWMTGVWGQITYDPTTNLVFYGSSAVGPASEVQRGTPGGTLYGTNTRFAVRPDTGEVVWRHQTLPRDNWDQECTFEMMVANVDVQPAADMDGVQAINPNAATGERRVLTGVPCKTGTMWQFDAETGEFLWARDTNYQNMISSIDETGLVTVNEDIILKDLDTDYRICPTFLGGRDWPSASLNPDSGIYFIPLNNACADLAAVDQEFTAMDVYNTSATYLLAPEKENMGRIDAIDISTGKTLWSVERLASNYSPVLSTAGGVLFNGGSDRYFRALSEETGETLWQTRLATVASGQAISYELDGVQYVAIAGGGNTYGTNLNSNIGATIDSTSIGNAVYVFALPQ
- improvement of L-sorbose production from D-sorbitol upon overexpression [7]: ~2 times
- L-sorbose production from D-sorbitol upon overexpression (in words) [7]: significantly improved
